Source: patent EP4458977A1, “SELF-ASSEMBLING PEPTIDE AMPHIPHILES AS RETROVIRAL TRANSDUCTION ENHANCERS” (Max-Planck-Gesellschaft zur Förderung der Wissenschaften …, priority 2023, dated 2024)
“Also recorded” adds a separate entry of the source. Where a SMILES comes first, the peptide text is derived from it. The star is where a group is joined. Palmitoyl = CCCCCCCCCCCCCCCC(=O)*

How the values were obtained:
HIV-1 = conditions: for enhancement of HIV-1 infection / transduction (in words): 6.5 µM, 1.3 µM, 0.26 µM; for Infectivity enhancing N fold at 1.3 µM: relative to virus only;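 for all read-outs here: TZM-bl reporter cells exposed to HIV-1 with peptide fibrils, infection read out as β-galactosidase luminescence, compared with virus alone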
Protocol: HIV-1 Infection Assay with TZM-bl cells: The effect of peptide fibrils on HIV-1 infection was studied via a luminescence assay for β-galactosidase, which was reported by TZM-bl cells upon infection. The HIV-1 infection assay was conducted in three technical replicates and repeated in three independent experiments unless stated otherwise.

[1] = ATR-FT-IR determination of β-sheet content; format: physicochemical; conditions: 1 mg/mL in PBS lyophilized; integral at 1630 cm^-1 relative to 1650-1700 cm^-1
Protocol: ATR-FT-IR: ATR-IR spectra acquisition and the calculation of β-sheet content were conducted according prior art procedures. Briefly, FT-IR spectra of solid samples were recorded after lyophilization of fibril solutions using a Bruker Tensor II spectrometer equipped with a diamond crystal as ATR element with a spectral resolution of 2 cm^-1, each spectrum was an average of 64 scans. The data was processed with Origin software. β-sheet amount was determined by calculating the integral of the peak at 1630 cm-1 (β-sheet) relative to the integral between 1650-1700 cm-1 (native structure) from the 2nd derivative of the FT-IR spectra.

HeLa cells = assay: Confocal laser scanning microscopy and degradation study with PA library and HeLa cells; format: cell-based; conditions: for degradability (in words) / Degradability / % (rel. to initial particles > 10 µm^2): HeLa cells; for degradability (in words): 3 days; for Degradability / % (rel. to initial particles > 10 µm^2): 3 d relative to 30 min; for association with cellular membranes: 2 µg added to 20.000 HeLa cells, 30 min
Protocol: In general, the procedure for determine whether a PA is degraded or not, is conducted by confocal laser scanning microscopy of Proteostat stained PAs which are added to Hela cells (2 µg peptide added to 20.000 cells). Microscopy is conducted at day 0 (d0, after 30 min of incubation) and at day 3 (d3, after 72 h of incubation). The number of aggregates >10 µm^2 is counted via 3D object counter in imaged in an area of 1008 µm × 1008 µm.
A PA is considered to be degradable if the number and the size of aggregates are reduced after 3 days. The efficiency is determined by the percentual degradation (aggregate number at d3 / aggregate number at d0). For the number of aggregation three technical replicates were evaluated for each sample. A large deviation represents a nonhomogeneous spatial distribution of aggregates.
Confocal laser scanning microscopy and degradation study with PA library and HeLa cells: Confocal laser scanning microscopy studies were performed for the visualization of the cell-PA interaction. HeLa cells were seeded one day prior to conducting the assay (20,000/well) in an 8-well IBIDI slide. […] The nucleus of the HeLa cells was stained with Hoechst 33342 (NucBlue™, Thermo Fisher Scientific). The peptide solution mixture was transferred to the HeLa cells and incubated for 30 min at 37°C before washing three times with PBS. […] For the evaluation of aggregate degradation, the samples were further incubated at 37°C for 3 d and analyzed without any additional washing step. […] The number of aggregates were determined by counting aggregates larger than the threshold 10 µm^2 in an area of 1008 × 1008 µm and repeated in three technical triplicates.

[2] = TEM of peptide assemblies (fibril formation / assembly); format: physicochemical; conditions: for TEM morphology (in words): 1 mg/mL in PBS; for Assembly without hydrophob residue: corresponding peptide without hydrophobic moiety; for Assembly: peptide amphiphile
Protocol: The peptides were predissolved in DMSO to a concentration of 10 mg/mL. The fibril formation was induced by further diluting the solution to a final incubation concentration of 650 µM or 1 mg/mL in PBS as indicated in the text and incubated for 1 d (1 day) at rt (room temperature, 20 °C - 25 °C). Other concentrations as described herein were achieved by further dilution of preformed fibrils.
(§1) Transmission electron microscopy (TEM) measurements, Thioflavin (ThT), zeta-potential measurements for fibril characterization were prepared and conducted according to prior art procedures. […] Fibrils were defined as distinct, if no visible structures could be identified in fluorescence and brightfield microscopy.

[3] = Fluorescence microscopy of ThT-stained fibrils (µm-sized aggregates); format: physicochemical; conditions: 1 mg/mL stained with 50 µM ThT
Protocol: as §1
Fluorescence microscopy: 1 µL Fibrils (1 mg mL^-1) were stained with 9 µL, 50 µM ThT. 10 µL of the stained fibrils (0.1 mg mL^-1) were placed on a microscopy glass. Fluorescence microscopy measurements were performed on a Leica DMi8 microscope with 10x air objective and equipped with a Leica MC170 HD camera with a filter setting λem = 527/30 nm upon excitation at λex = 480/40 nm) and processed with the Leica LASX software.

In the case of `CCCCCCCCCCCCCCCC(=O)N[C@@H](C)C(=O)N[C@@H](CCC(N)=O)C(=O)N[C@@H](C)C(=O)N[C@@H](CCCCN)C(=O)N[C@@H](C)C(=O)N[C@@H](CCCCN)C(N)=O` [Pat16, C16-AQAKAK-NH2] (Palmitoyl-AQAKAK-NH2), the “enhances infectivity at 1.3 µM concentration, times more efficient compared to virus only infection” value (HIV-1) is reported as 4 times, the “enhancement of HIV-1 infection / transduction (in words)” value (HIV-1) is reported as “do not efficiently enhance infectivity” and the “Infectivity enhancing N fold at 1.3 µM” value (HIV-1) is reported as 4±1 N fold. For the same compound, the β-sheet amount [1] was 50%, the “degradability (in words)” value (HeLa cells) was “cannot be degraded; also recorded: non-degradable PA” and the “Degradability / % (rel. to initial particles > 10 µm^2)” value (“Degradability / %” for short) (HeLa cells) was -83%. For the same compound, the aggregate number increases (HeLa cells; d3 relative to d0) was 83%, the “TEM morphology (in words)” value [2] was “fibrillar morphologies” and the “Assembly without hydrophob residue” value [2] was “No”. The Assembly [2] was “Yes” and the “fluorescent, µm-sized aggregates (ThT staining)” value (from here on “fluorescent … (ThT staining)”) [3] was “fluorescent, µm-sized aggregates”.
In the case of `CCCCCCCCCCCCCCCC(=O)N[C@@H](Cc1c[nH]c2ccccc12)C(=O)N[C@@H](CCC(=O)O)C(=O)N[C@@H](C)C(=O)N[C@@H](CC(C)C)C(=O)N[C@@H](CCCCN)C(=O)N[C@@H](CCCCN)C(N)=O` [Pat17, C16-WEALKK-NH2] (Palmitoyl-WEALKK-NH2), the “infectivity enhancement at 1.3 µM concentration compared to virus only infection (in words)” value (HIV-1) is reported as “does not enhance infectivity”, the “enhancement of HIV-1 infection / transduction (in words)” value (HIV-1) is reported as “no infectivity enhancement can be observed” and the “Infectivity enhancing N fold at 1.3 µM” value (HIV-1) is reported as 1±0 N fold. For the same compound, the β-sheet amount [1] was 38%, the “association with cellular membranes” value (HeLa cells) was “no association with cellular membranes” and the “TEM morphology (in words)” value [2] was “not forming fibrils; also recorded: amorphous aggregate morphology”. The “Assembly without hydrophob residue” value [2] was “No”, the Assembly [2] was “No” and the “fluorescent … (ThT staining)” value [3] was “fluorescent, µm-sized aggregates”.
For `CCCCCCCCCCCCCCCC(=O)N[C@@H](C)C(=O)N[C@H](C(=O)N[C@@H](C)C(=O)N[C@@H](CCCCN)C(=O)N[C@@H](CCCCN)C(=O)N[C@@H](CCCCN)C(N)=O)C(C)C` [Pat21, C16-AVAKKK-NH2] (Palmitoyl-AVAKKK-NH2), the “enhances infectivity at 1.3 µM concentration, times more efficient compared to virus only infection” value (HIV-1) was 2 times, the “enhancement of HIV-1 infection / transduction (in words)” value (HIV-1) was “no infectivity enhancement can be observed” and the “Infectivity enhancing N fold at 1.3 µM” value (HIV-1) was 2±0 N fold. For the same compound, the β-sheet amount [1] was 45%, the “association with cellular membranes” value (HeLa cells) was “association with cellular membranes” and the “degradability (in words)” value (HeLa cells) was “can be degraded; also recorded: not efficiently degradable; also recorded: degradable PA”. The “Degradability / %” value (HeLa cells) was 68%, the “aggregate number decreases / degraded in presence of HeLa cells within 3 days” value (HeLa cells; d3 relative to d0) was 84% and the “TEM morphology (in words)” value [2] was “fibrillar morphologies”. For the same compound, the “Assembly without hydrophob residue” value [2] was “No”, the Assembly [2] was “Yes” and the “fluorescent … (ThT staining)” value [3] was “fluorescent, µm-sized aggregates”.
With `CCCCCCCCCCCCCCCC(=O)N[C@H](C(=O)N[C@H](C(=O)N[C@@H](C)C(=O)N[C@@H](C)C(=O)N[C@@H](Cc1c[nH]cn1)C(=O)N[C@@H](Cc1c[nH]cn1)C(=O)N[C@@H](Cc1c[nH]cn1)C(N)=O)C(C)C)C(C)C` [Pat24, C16-VVAAHHH-NH2] (Palmitoyl-VVAAHHH-NH2) the “infectivity enhancement at 1.3 µM concentration compared to virus only infection (in words)” value (HIV-1) was “does not enhance infectivity”, the “enhancement of HIV-1 infection / transduction (in words)” value (HIV-1) was “do not efficiently enhance infectivity” and the “Infectivity enhancing N fold at 1.3 µM” value (HIV-1) was 2±0 N fold. For the same compound, the β-sheet amount [1] was 70%, the “association with cellular membranes” value (HeLa cells) was “association with cellular membranes” and the “degradability (in words)” value (HeLa cells) was “cannot efficiently be degraded; also recorded: not efficiently degradable; also recorded: non-degradable PA”. The “Degradability / %” value (HeLa cells) was 26%, the “aggregate number decreases / degraded in presence of HeLa cells within 3 days” value (HeLa cells; d3 relative to d0) was 26% and the “TEM morphology (in words)” value [2] was “fibrillar morphologies”. For the same compound, the “Assembly without hydrophob residue” value [2] was “No”, the Assembly [2] was “Yes” and the “fluorescent … (ThT staining)” value [3] was “fluorescent, µm-sized aggregates”.
